Measurements as given in patent EP2787958B1, “CHELIDONIUM MAJUS EXTRACTS AND THEIR USE IN THE TREATMENT OF SKIN DISORDERS AND PROMOTION OF SKIN REGENERATION” (priority 2011, dated 2013).
Where two headings read alike, the source gives them in different places.

What was measured:
interleukin 1β (IL-1β) = experiment: Inflammatory cytokines in cell supernatant (Mosaic ELISA microarray): IL-1β; format: cell-based, Human; details: for IL-1β ng/(ml* No. of cells from photo) ± SD: 24 hours; for IL-1β production (effect in words): 1-10 µM
Method: (§1) The inflammatory cytokines, CD40 ligand (CD40L), interferon γ (INF-γ), interleukin 1α (IL-1α), interleukin 1β (IL-1β), interleukin 6 (IL-6), interleukin 8 (IL-8), interleukin 17 (IL-17) and tumour necrosis factor α (TNF-α) were determined qualitatively and quantitatively. Each measurement was performed in duplicate using a Mosaic™ ELISA protein microarray assay system from R&D System in accordance with the supplier's instructions. Furthermore, with the aim of obtaining a correlation model between light signal intensity and cytokine concentration, a calibration curve using 6 concentrations was performed for each of them. Analysis of the data was performed using the dedicated Q-View™ Imager software package from Quansys Biosciences

interleukin 6 (IL-6) = experiment: Inflammatory cytokines in cell supernatant (Mosaic ELISA microarray): IL-6; format: cell-based, Human; details: for IL-6 ng/(ml* No. of cells from photo) ± SD: 24 hours; for IL-6 production (effect in words): 1-10 µM
Method: as §1

[1] = Anti-radical activity (decay of the DPPH radical); format: biochemical; details: for Anti-radical (skin protective): 24 hours
Method: With regard to assays aimed at evaluating anti-radical activity, a chemical test was used where the decay of the diphenylpicrylhydrazyl (DPPH) radical is assessed in the absence or in the presence of the test substances. Indeed, the DPPH radical is used to test the ability of substances to act as free radical scavengers. DPPH in solution has a purple colour with a maximum absorbance peak at 517 nm which changes to yellow-colourless when this radical extracts a hydrogen atom from a radical scavenger to give rise to the reduced form DPPH-H. The assay has been conducted in quadruplicate in 96 well microplates (SARSTEDT Tissue Culture Plate 96-well flat bottom cell+). 50 µl of an ethanol solution of the test substance at 2X concentration and then 50 µl of a 200 µM solution of DPPH (MW 168,18, Aldrich 2,2-di(4-tert-octylphenyl)-1-picrylhydrazyl, free radical Lot# MKBF7574V Cat N° 257621-100 mg) have been added to each well of the microplate. A positive control consisting of 0.1 mM vitamin C and a negative control consisting of ethanol alone were included in each microplate. After 30 minutes from the addition of DPPH, photographs of the plates were taken (Canon PowerShot A610 5.0 Mpixels) and read spectrophotometrically at 530 nm.
Based on the analysis of the results reported in Table 9, some substances were selected for further characterisation of their anti-radical activity. For the selected substances, dose-activity curves were obtained and the IC50 value were computed using a non-linear regression model with the Hill equation at variable slope. Such substances had been selected due to both their anti-radical potential and the easiness of their isolation/production. The selection of substances was made in view of cosmetics applications. Moreover their activity on human dermal fibroblasts (HDF) is expected to be useful also for the development of dermatological medications. The selected substances are discussed below.

HDF cells [2] = experiment: Summary of uses and toxic effects deduced from the cell assays (Table 1); format: cell-based, Human; details: for Anti-fibrotic (prevention of scar formation, also from acne) / Cytoprotective (antioxidant, anti-inflammatory and anti-ageing; useful also in the treatment of acne) / Cytotoxic / Irritant / Wound-healing: 24 hours
Method: Antiradical (skin protective): this is deduced from the free radical scavenger effects.
Revitalizing: this is deduced from the increased mitochondrial dehydrogenase effect.
Cytoprotective, with regard to oxidative damage (antioxidant, anti-inflammatory and anti-ageing): this is deduced from antagonising the stimulation of IL-1β and/or IL-6 induced by 100 µM H2O2 and from the absence of changes in cell morphology similar to the ones due to cell senescence.
Wound healing: this is deduced from the effect of inhibiting the production of IL-1β and by the effect of stimulating cell proliferation under standard growth conditions.
Cytotoxicity: this is deduced from the effect of reducing mitochondrial dehydrogenase activity or from the presence of morphologies characteristic of cell senescence.
Irritation: this is deduced from the effect of increased production of IL-6 and/or IL-1β under standard growth conditions.
Said uses in the fields of medicine and cosmetics or the toxic effects of the substances of the invention at a given dosage, for 24 hours, are summarized in Table 1 below.

[3] = system: collagen produced by HDF cells; experiment: Quantity of collagen produced by the cells (elution of Sirius Red)
[4] = system: Human dermal fibroblasts (HDF); experiment: Mitochondrial dehydrogenase activity (WST-1 formazan assay) in HDF cells; details: for Revitalizing agent: 24 hours; for activity at 1 µM / activity at 10 µM: Homo sapiens, Fibroblast, read-out: % mitochondrial dehydrogenase activity ± SD; for mitochondrial dehydrogenase activity (effect in words): fibroblasts
HDF cells [5] = experiment: Evaluation of cell proliferation (counting of Sirius Red stained cells in photographs); details: 24 hours
[6] = Dose 1 µm (coptisine: 1 pm [sic])

c1c2c(cc3c1OCO3)-c1cc3ccc4c(c3c[n+]1CC2)OCO4 [coptisine]
IL-1β ng/(ml* No. of cells from photo) ± SD (interleukin 1β (IL-1β); 1 µM, 34 ng/ml TGF-β1): 207±8 ng/(ml* No. of cells from photo) | IL-1β ng/(ml* No. of cells from photo) ± SD (interleukin 1β (IL-1β); 1 µM, 100 µM H2O2): 174±20 ng/(ml* No. of cells from photo) | IL-1β ng/(ml* No. of cells from photo) ± SD (interleukin 1β (IL-1β); 1 µM, Standard conditions): 137±12 ng/(ml* No. of cells from photo) | IL-1β ng/(ml* No. of cells from photo) ± SD (interleukin 1β (IL-1β); 10 µM, 34 ng/ml TGF-β1): 267±15 ng/(ml* No. of cells from photo) | IL-1β ng/(ml* No. of cells from photo) ± SD (interleukin 1β (IL-1β); 10 µM, 100 µM H2O2): 236±8 ng/(ml* No. of cells from photo) | IL-1β ng/(ml* No. of cells from photo) ± SD (interleukin 1β (IL-1β); 10 µM, Standard conditions): 155±7 ng/(ml* No. of cells from photo) | IL-1β production (effect in words) (interleukin 1β (IL-1β); 34 ng/ml TGF-β1): tendency to increase IL-1β production in a dose-dependent manner | IL-1β production (effect in words) (interleukin 1β (IL-1β); 100 µM H2O2): tendency to increase IL-1β production in a dose-dependent manner | IL-1β production (effect in words) (interleukin 1β (IL-1β); standard conditions): tendency to increase IL-1β production in a dose-dependent manner | IL-6 ng/(ml* No. of cells from photo) ± SD (interleukin 6 (IL-6); 1 µM, 34 ng/ml TGF-β1): 1027±36 ng/(ml* No. of cells from photo) | IL-6 ng/(ml* No. of cells from photo) ± SD (interleukin 6 (IL-6); 1 µM, 100 µM H2O2): 1034±27 ng/(ml* No. of cells from photo) | IL-6 ng/(ml* No. of cells from photo) ± SD (interleukin 6 (IL-6); 1 µM, Standard conditions): 612±31 ng/(ml* No. of cells from photo) | IL-6 ng/(ml* No. of cells from photo) ± SD (interleukin 6 (IL-6); 10 µM, 34 ng/ml TGF-β1): 1244±58 ng/(ml* No. of cells from photo) | IL-6 ng/(ml* No. of cells from photo) ± SD (interleukin 6 (IL-6); 10 µM, 100 µM H2O2): 1710±114 ng/(ml* No. of cells from photo) | IL-6 ng/(ml* No. of cells from photo) ± SD (interleukin 6 (IL-6); 10 µM, Standard conditions): 751±93 ng/(ml* No. of cells from photo) | IL-6 production (effect in words) (interleukin 6 (IL-6); 34 ng/ml TGF-β1): tendency to increase IL-6 production in a dose-dependent manner | IL-6 production (effect in words) (interleukin 6 (IL-6); 100 µM H2O2): tendency to increase IL-6 production in a dose-dependent manner | IL-6 production (effect in words) (interleukin 6 (IL-6); standard conditions): tendency to increase IL-6 production in a dose-dependent manner | % DPPH activity ([1]; 1 mM, 30 minutes): 114% | Anti-radical (skin protective) [1, 6]: No | Anti-radical (skin protective) ([1]; Dose 10 µm): No | Anti-fibrotic (prevention of scar formation, also from acne) (HDF cells [2]; [6]): No | Cytoprotective (antioxidant, anti-inflammatory and anti-ageing; useful also in the treatment of acne) (HDF cells [2]; [6]): No | Cytotoxic (HDF cells [2]; [6]): No | Irritant (HDF cells [2]; [6]): Yes (↑IL-6, ↑IL-1β) | Wound-healing (HDF cells [2]; [6]): No | Anti-fibrotic (prevention of scar formation, also from acne) (HDF cells [2]; Dose 10 µm): No | Cytoprotective (antioxidant, anti-inflammatory and anti-ageing; useful also in the treatment of acne) (HDF cells [2]; Dose 10 µm): No | Cytotoxic (HDF cells [2]; Dose 10 µm): No | Irritant (HDF cells [2]; Dose 10 µm): Yes (↑IL-6, ↑IL-1β) | Wound-healing (HDF cells [2]; Dose 10 µm): No | concentrations at which toxic (irritant) effects are shown (HDF cells [2]; exposure for 24 hours): greater than or equal to 1 µM | collagen production (effect in words) ([3]; 1-10 µM (1 µM and 10 µM), 34 ng/ml TGF-β1): stimulates collagen production in a dose-dependent manner | collagen production (effect in words) ([3]; 1-10 µM (1 µM and 10 µM), 100 µM H2O2): stimulates collagen production in a dose-dependent manner | collagen production (effect in words) ([3]; 1-10 µM, standard conditions): stimulates collagen production in a dose-dependent manner | concentrations below which no significant effects on mitochondrial dehydrogenase activity are shown [4]: below 1 µM | Revitalizing agent [4, 6]: No | Revitalizing agent ([4]; Dose 10 µm): No | activity at 1 µM ([4]; 24 h): 84.5 ± 3.17% | activity at 10 µM ([4]; 24 h): 62.3 ± 11.8% | activity at 1 µM ([4]; 42 h): 90.1 ± 2.3% | activity at 10 µM ([4]; 42 h): 139 ± 5.34% | mitochondrial dehydrogenase activity (effect in words) ([4]; low dose for a prolonged period of time, to a lesser extent): stimulatory effects | mitochondrial dehydrogenase activity (effect in words) ([4]; overall): mostly inhibitory effects | No. of cells from photo ± SD (HDF cells [5]; 1 µM, 34 ng/ml TGF-β1): 111±18 | No. of cells from photo ± SD (HDF cells [5]; 1 µM, 100 µM H2O2): 143±17 | No. of cells from photo ± SD (HDF cells [5]; 1 µM, Standard conditions): 144±12 | No. of cells from photo ± SD (HDF cells [5]; 10 µM, 34 ng/ml TGF-β1): 86±6 | No. of cells from photo ± SD (HDF cells [5]; 10 µM, 100 µM H2O2): 114±0 | No. of cells from photo ± SD (HDF cells [5]; 10 µM, Standard conditions): 129±27
